The values that follow come from doi:10.1101/2025.01.28.635346v1 (bioRxiv, 2025).

In experiment [1] the target is integrin αvβ8 (Homo sapiens, UniProt P06756+P26012). Kind of experiment: ELISA competition assay, integrin αvβ8 binding to LAP.
The target in experiment [2] is integrin αvβ3 (Homo sapiens, UniProt P05106+P06756). Kind of experiment: ELISA competition assay, integrin αvβ3. Type of experiment: binding. In general terms: In an ELISA, binding on a coated surface is turned into a signal by an enzyme label.
Experiment [3] has as its system αvβ6/8 vs other RGD-integrins. As to the kind of experiment: Selectivity and potency gain for αvβ6/8, worked out from integrin IC50 values. Type of experiment: binding, human. The settings on record: for improvement in potency (IC50) for αvβ6/8 relative to parent lassotide: 24 and 30 vs 14, 35 vs 28, 36 vs 30, 47 vs 36.
The target of experiment [4] is integrin αvβ6 (Homo sapiens, UniProt P06756+P18564). As to the kind of experiment: ELISA competition assay, integrin αvβ6 binding to LAP.
Experiment [5] addresses T1, Mouse αvβ6 (Mus musculus, UniProt P43406+Q9Z0T9).
T1 sequence (P43406 31-988 limits assumed): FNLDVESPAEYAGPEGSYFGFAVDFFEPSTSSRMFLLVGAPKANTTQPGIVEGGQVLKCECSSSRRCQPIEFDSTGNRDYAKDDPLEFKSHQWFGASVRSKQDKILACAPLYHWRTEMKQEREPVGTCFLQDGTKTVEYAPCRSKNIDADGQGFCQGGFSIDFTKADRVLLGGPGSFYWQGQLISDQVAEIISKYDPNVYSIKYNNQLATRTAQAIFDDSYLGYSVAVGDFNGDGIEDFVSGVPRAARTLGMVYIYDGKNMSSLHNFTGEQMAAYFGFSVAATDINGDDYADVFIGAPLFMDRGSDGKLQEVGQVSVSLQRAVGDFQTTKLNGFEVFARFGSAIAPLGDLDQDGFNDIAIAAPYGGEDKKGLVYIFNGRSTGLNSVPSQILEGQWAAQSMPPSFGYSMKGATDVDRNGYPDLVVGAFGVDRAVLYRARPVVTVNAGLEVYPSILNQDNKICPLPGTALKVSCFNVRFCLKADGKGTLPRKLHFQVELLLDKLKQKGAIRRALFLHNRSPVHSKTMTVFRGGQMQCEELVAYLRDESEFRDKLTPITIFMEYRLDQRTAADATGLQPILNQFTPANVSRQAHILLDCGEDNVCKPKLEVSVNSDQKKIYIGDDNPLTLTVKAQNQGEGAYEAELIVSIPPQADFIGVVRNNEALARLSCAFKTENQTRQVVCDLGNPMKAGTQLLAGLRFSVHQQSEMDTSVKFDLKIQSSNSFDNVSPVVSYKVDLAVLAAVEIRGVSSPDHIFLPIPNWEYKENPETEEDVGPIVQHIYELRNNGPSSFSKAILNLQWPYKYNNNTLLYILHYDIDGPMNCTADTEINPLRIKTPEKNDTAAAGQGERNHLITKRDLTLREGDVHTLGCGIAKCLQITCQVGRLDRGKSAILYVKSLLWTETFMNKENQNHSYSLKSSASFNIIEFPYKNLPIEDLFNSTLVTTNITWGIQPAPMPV
T1 sequence (Q9Z0T9 22-707 limits assumed): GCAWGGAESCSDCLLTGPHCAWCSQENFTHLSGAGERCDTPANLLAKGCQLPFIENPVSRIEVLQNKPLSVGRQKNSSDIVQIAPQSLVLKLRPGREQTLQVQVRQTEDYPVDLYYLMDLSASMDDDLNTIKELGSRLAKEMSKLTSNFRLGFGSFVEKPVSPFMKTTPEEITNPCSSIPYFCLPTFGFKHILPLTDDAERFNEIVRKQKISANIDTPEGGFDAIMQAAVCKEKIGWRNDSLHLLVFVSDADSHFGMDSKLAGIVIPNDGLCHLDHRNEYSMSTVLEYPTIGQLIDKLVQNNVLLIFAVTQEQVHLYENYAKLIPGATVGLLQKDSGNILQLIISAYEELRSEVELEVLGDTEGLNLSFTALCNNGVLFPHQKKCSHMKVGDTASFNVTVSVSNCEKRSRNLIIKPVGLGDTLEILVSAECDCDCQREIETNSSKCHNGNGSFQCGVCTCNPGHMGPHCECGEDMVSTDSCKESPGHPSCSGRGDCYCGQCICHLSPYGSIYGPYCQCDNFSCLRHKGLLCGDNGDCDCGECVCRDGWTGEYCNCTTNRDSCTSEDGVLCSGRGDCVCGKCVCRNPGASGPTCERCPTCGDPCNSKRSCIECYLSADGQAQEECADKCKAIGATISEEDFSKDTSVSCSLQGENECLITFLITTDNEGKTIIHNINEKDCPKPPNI
Kind of experiment: ELISA competition assay, mouse integrin αvβ6. The experiment is classed as binding.

Experiment [6] deals with T2, integrin αIIbβ3 (Homo sapiens, UniProt P05106+P08514).
T2 sequence (P08514 32-993 limits assumed): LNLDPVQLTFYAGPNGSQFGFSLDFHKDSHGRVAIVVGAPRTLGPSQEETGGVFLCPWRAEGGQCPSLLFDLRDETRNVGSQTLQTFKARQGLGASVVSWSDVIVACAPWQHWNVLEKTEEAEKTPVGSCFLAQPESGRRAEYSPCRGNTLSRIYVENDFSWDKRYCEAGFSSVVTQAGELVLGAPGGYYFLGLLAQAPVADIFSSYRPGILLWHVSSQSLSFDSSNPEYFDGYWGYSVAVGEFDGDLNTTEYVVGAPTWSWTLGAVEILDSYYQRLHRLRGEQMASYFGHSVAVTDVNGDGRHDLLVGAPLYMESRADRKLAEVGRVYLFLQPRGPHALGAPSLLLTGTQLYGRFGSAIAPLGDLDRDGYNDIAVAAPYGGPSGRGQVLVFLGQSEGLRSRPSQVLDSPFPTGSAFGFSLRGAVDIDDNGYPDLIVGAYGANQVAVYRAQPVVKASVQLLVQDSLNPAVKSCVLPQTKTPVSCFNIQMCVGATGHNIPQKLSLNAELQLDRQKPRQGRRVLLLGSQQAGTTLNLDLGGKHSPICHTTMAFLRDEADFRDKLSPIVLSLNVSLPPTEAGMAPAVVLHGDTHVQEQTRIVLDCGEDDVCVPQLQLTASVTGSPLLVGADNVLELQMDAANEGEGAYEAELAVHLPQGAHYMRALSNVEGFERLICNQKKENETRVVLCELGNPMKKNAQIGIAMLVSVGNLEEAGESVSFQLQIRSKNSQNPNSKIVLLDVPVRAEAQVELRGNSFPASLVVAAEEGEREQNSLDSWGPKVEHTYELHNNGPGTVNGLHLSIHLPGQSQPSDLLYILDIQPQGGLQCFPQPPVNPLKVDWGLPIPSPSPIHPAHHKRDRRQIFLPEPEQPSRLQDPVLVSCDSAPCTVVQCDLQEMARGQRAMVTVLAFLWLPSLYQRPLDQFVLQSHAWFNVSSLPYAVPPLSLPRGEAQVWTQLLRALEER
T2 sequence (P05106 27-718 limits assumed): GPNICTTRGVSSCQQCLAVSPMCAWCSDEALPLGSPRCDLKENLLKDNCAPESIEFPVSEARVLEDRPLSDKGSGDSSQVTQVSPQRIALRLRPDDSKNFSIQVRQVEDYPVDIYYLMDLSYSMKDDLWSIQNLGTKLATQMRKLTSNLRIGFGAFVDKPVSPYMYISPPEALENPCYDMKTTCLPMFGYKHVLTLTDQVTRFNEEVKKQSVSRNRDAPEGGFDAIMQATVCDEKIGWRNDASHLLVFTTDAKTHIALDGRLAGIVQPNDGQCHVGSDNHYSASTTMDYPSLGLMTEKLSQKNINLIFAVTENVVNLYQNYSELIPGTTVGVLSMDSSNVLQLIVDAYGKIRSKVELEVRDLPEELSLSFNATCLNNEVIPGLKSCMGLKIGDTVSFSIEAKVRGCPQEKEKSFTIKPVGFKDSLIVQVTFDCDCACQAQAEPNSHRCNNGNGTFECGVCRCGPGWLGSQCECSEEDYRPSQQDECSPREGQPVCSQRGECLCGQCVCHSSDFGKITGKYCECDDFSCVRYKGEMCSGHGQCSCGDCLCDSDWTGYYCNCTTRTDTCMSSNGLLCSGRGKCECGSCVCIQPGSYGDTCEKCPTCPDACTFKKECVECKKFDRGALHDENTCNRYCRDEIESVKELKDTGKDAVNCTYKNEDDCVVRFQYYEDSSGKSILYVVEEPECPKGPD
As to the kind of experiment: ELISA competition assay, integrin αIIbβ3. Type of experiment: binding.

In experiment [7] the target is integrin αvβ5 (Homo sapiens, UniProt P06756+P18084). Kind of experiment: ELISA competition assay, integrin αvβ5. The experiment is classed as binding.
The target in experiment [8] is integrin α8β1 (Homo sapiens, UniProt P05556+P53708). Kind of experiment: ELISA competition assay, integrin α8β1. Type of experiment: binding.
The target in experiment [9] is integrin αvβ1 (Homo sapiens, UniProt P05556+P06756). Kind of experiment: ELISA competition assay, integrin αvβ1. Type of experiment: binding.
For experiment [10], the target named is integrin α5β1 (Homo sapiens, UniProt P05556+P08648). As to the kind of experiment: ELISA competition assay, integrin α5β1. Type of experiment: binding.
Where [11] appears, read: αvβ6 IC50, ELISA competition vs LAP, mean, n ≥ 3.

Where two headings read alike, the source gives them in different places. Bridge positions count the residues as written; N and C are the ends. Peptide text beside a SMILES is read from it.

For `CC[C@H](C)[C@H](NC(=O)[C@H](CC(C)C)NC(=O)[C@H](CC(=O)O)NC(=O)CNC(=O)[C@H](CCCNC(=N)N)NC(=O)[C@@H](NC(=O)[C@H](Cc1ccccc1)NC(=O)[C@H](Cc1ccc(O)cc1)NC(=O)[C@@H]1CCC(=O)NCC(=O)NCC(=O)N[C@@H](C)C(=O)NCC(=O)N[C@@H](Cc2c[nH]cn2)C(=O)N[C@@H](C(C)C)C(=O)N2CCC[C@H]2C(=O)N1)C(C)C)C(=O)N[C@@H](CO)C(=O)N[C@@H](Cc1ccccc1)C(=O)N[C@@H](Cc1ccc(O)cc1)C(=O)NCC(=O)O` [lassotide 14] (GGAGHVPEYFVRGDLISFYG-OH; lactam N-8; C-terminus assumed), the results for the IC50 in experiment [1], in [2] and in experiment [4] were 116 nM, 238 nM and 84 nM, respectively. In addition, in [3] (from IC50 values), the “selectivity favoring αvβ6/8 over αvβ3” value is on record as 2-3 fold.
Consider `CC[C@H](C)[C@H](NC(=O)[C@H](CC(C)C)NC(=O)[C@H](CC(=O)O)NC(=O)CNC(=O)[C@H](CCCNC(=N)N)NC(=O)[C@@H](NC(=O)[C@H](Cc1ccccc1)NC(=O)[C@H](Cc1ccc(O)cc1)NC(=O)[C@@H]1CCC(=O)NCC(=O)NCC(=O)N[C@@H](CCCNC(=N)N)C(=O)NCC(=O)N[C@@H](Cc2c[nH]cn2)C(=O)N[C@@H](C(C)C)C(=O)N2CCC[C@H]2C(=O)N1)C(C)C)C(=O)N[C@@H](CO)C(=O)N[C@@H](Cc1ccccc1)C(=O)N[C@@H](Cc1ccc(O)cc1)C(=O)NCC(=O)O` [lassotide 30] (GGRGHVPEYFVRGDLISFYG-OH; lactam N-8; C-terminus assumed), for which the IC50 (as a rule, the concentration at which inhibition is half-maximal) in experiment [1] was found to be 27 nM; in [4] (Human αvß6 IC50, ELISA run in triplicate, mean, Table S1), 17 nM; in experiment [4] (setting [11]), 30 nM; in experiment [5], 24 nM. Moreover, the “improvement in potency (IC50) for αvβ6/8 relative to parent lassotide” value in experiment [3] was 3-4 fold.
Turning to `CC[C@H](C)[C@H](NC(=O)[C@H](CC(C)C)NC(=O)[C@H](CC(=O)O)NC(=O)CNC(=O)[C@H](CCCNC(=N)N)NC(=O)[C@@H](NC(=O)[C@H](Cc1ccccc1)NC(=O)[C@H](Cc1ccc(O)cc1)NC(=O)[C@@H]1CCC(=O)NCC(=O)NCC(=O)N[C@@H](CCCCN)C(=O)NCC(=O)N[C@@H](Cc2c[nH]cn2)C(=O)N[C@@H](C(C)C)C(=O)N2CCC[C@H]2C(=O)N1)C(C)C)C(=O)N[C@@H](CO)C(=O)N[C@@H](Cc1ccccc1)C(=O)N[C@@H](Cc1ccc(O)cc1)C(=O)N[C@@H](CCCCN)C(=O)O` [lassotide 35] (GGKGHVPEYFVRGDLISFYK-OH; lactam N-8; C-terminus assumed), the IC50 in experiment [1] is 36 nM; in experiment [4] (setting [11]), 25 nM. Besides, the “improvement in potency (IC50) for αvβ6/8 relative to parent lassotide” value in experiment [3] is listed as “up to 2 fold”.
Turning to `CC(C)C[C@H](NC(=O)[C@H](CC(=O)O)NC(=O)CNC(=O)[C@H](CCCNC(=N)N)NC(=O)[C@@H](NC(=O)[C@H](Cc1ccccc1)NC(=O)[C@H](Cc1ccc(O)cc1)NC(=O)[C@@H]1CCC(=O)NCC(=O)NCC(=O)N[C@@H](CCCNC(=N)N)C(=O)NCC(=O)N[C@@H](Cc2c[nH]cn2)C(=O)N[C@@H](C(C)C)C(=O)N2CCC[C@H]2C(=O)N1)C(C)C)C(=O)N[C@@H](CCC(N)=O)C(=O)N[C@@H](CO)C(=O)N[C@@H](Cc1ccccc1)C(=O)N[C@@H](Cc1ccc(O)cc1)C(=O)NCC(=O)O` [lassotide 38] (GGRGHVPEYFVRGDLQSFYG-OH; lactam N-8), the concentration for half-maximal inhibition (IC50) in [6] was 126 nM; in experiment [2], 185 nM; in experiment [7], above 10000 nM; in experiment [4] (setting [11]), 3 nM; in experiment [5], 4 nM; in experiment [8], 1290 nM. In addition, the values for the half-maximal inhibitory concentration (IC50) in experiment [9] and in experiment [10] were 13 nM and 397 nM, respectively.
